These are literature values, as cited in PMC13151045, “Accounting for Differences in Plasma Protein Binding between Fish and Humans for Supporting Environmental Risk Assessment of Pharmaceuticals Using the Fish Plasma Model” (Environmental Science & Technology, 2026).

For the series the following is noted: minimum reported human therapeutic plasma concentration; ref footnote e of Table 4.

`CC(C)NCC(O)COc1cccc2ccccc12` (centres unmarked) [Propranolol]: the “Human C max” value was 20 ng/mL. Consider `CC1Cc2ccccc2N1NC(=O)c1ccc(Cl)c(S(N)(=O)=O)c1` (centres unmarked) [Indapamide], for which the “Human C max” value was 55.8 ng/mL.
